Results from the supplement of paper PMC8239392.

Legend:
[1] = tested on: TAZ-DEP MCF10A-TAZ tumor cells; test: cell viability relative to DMSO control; higher = less cytotoxic; extreme values may be limits of the assay; details: 72 h
Method: (§1)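 TAZ-dependent (grown with 2 ug/ml dox) and TAZ-independent MCF10A-TAZ tumor-derived breast cancer stem-like cells were plated in 384-well plates and treated with serially diluted compounds (0.65-10 uM) for 72 h. Viability was read by resazurin assay and expressed as % of DMSO-treated control.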

[2] = tested on: TAZ-IND MCF10A-TAZ tumor cells; test: as above; details: 72 h
Method: as §1

For CNC(=O)c1cc(Oc2ccc(NC(=O)Nc3ccc(Cl)c(C(F)(F)F)c3)cc2)ccn1 [Sorafenib], the cell viability ([1]; 0.65 µM) was 100%, the cell viability ([1]; 1.25 µM) was 98% and the cell viability ([1]; 2.5 µM) was 92%. The cell viability ([1]; 5 µM) was 84%, the cell viability ([1]; 10 µM) was 72% and the cell viability ([2]; 0.65 µM) was 100%. For the same compound, the cell viability ([2]; 1.25 µM) was 99%, the cell viability ([2]; 2.5 µM) was 100% and the cell viability ([2]; 5 µM) was 98%. For the same compound, the cell viability ([2]; 10 µM) was 93%.
N#CC(=C(/N)Sc1ccccc1N)/C(C#N)=C(\N)Sc1ccccc1N [U0126-EtOH] gave a cell viability ([1]; 0.65 µM) of 99%, a cell viability ([1]; 1.25 µM) of 94% and a cell viability ([1]; 2.5 µM) of 84%. It also gave a cell viability ([1]; 5 µM) of 70%, a cell viability ([1]; 10 µM) of 67% and a cell viability ([2]; 0.65 µM) of 95%. For the same compound, the cell viability ([2]; 1.25 µM) was 94%, the cell viability ([2]; 2.5 µM) was 89% and the cell viability ([2]; 5 µM) was 84%. For the same compound, the cell viability ([2]; 10 µM) was 79%.
CNCc1ccc(-c2cc(-c3nc(-c4ccc(S(=O)(=O)C(C)C)cc4)cnc3N)on2)cc1 [VE-822] showed a cell viability ([1]; 0.65 µM) of 55%, a cell viability ([1]; 1.25 µM) of 37% and a cell viability ([1]; 2.5 µM) of 29%. For the same compound, the cell viability ([1]; 5 µM) was 23%, the cell viability ([1]; 10 µM) was 20% and the cell viability ([2]; 0.65 µM) was 96%. For the same compound, the cell viability ([2]; 1.25 µM) was 87%, the cell viability ([2]; 2.5 µM) was 81% and the cell viability ([2]; 5 µM) was 75%. The cell viability ([2]; 10 µM) was 69%.
Work on C=CC(=O)Nc1cccc(Oc2nc(Nc3ccc(N4CCN(C)CC4)cc3OC)ncc2Cl)c1 [WZ4002] yielded a cell viability ([1]; 0.65 µM) of 90%, a cell viability ([1]; 1.25 µM) of 72% and a cell viability ([1]; 2.5 µM) of 67%. It also gave a cell viability ([1]; 5 µM) of 33%, a cell viability ([1]; 10 µM) of 23% and a cell viability ([2]; 0.65 µM) of 96%. The cell viability ([2]; 1.25 µM) was 97%, the cell viability ([2]; 2.5 µM) was 96% and the cell viability ([2]; 5 µM) was 75%. The cell viability ([2]; 10 µM) was 68%.
